Laboratory results as given in patent US9370569B2 (priority 2014, dated 2016).

Target: influenza RNA polymerase (Influenza A virus, UniProt P03431)
Assay: Influenza polymerase assay (radiolabeled nucleotide incorporation)
Type: biochemical
Details: nucleotide triphosphates in influenza polymerase assay

Chain of influenza RNA polymerase (P03431 whole entry, looked up): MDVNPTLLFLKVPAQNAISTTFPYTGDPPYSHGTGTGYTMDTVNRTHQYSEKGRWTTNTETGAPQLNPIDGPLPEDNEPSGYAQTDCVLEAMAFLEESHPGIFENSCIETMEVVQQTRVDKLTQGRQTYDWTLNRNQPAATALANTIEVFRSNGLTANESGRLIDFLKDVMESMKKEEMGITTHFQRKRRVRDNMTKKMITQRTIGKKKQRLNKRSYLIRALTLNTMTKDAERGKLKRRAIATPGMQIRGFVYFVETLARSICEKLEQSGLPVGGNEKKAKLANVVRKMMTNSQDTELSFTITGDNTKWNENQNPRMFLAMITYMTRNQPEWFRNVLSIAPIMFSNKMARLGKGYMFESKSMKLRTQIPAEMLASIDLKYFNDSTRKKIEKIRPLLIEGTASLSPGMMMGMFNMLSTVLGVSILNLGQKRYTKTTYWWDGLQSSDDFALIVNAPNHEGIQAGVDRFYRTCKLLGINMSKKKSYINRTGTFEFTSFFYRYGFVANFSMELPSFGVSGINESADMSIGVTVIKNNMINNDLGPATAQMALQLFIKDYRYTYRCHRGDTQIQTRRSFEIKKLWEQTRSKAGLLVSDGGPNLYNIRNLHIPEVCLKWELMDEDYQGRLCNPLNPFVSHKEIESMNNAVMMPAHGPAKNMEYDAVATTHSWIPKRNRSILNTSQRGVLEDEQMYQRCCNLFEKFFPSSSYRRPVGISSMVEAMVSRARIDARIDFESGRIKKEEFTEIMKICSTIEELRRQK

SMILES | IC50 [µM]
O=c1[nH]c(=O)n([C@@H]2O[C@@](COP(=O)(O)OP(=O)(O)OP(=O)(O)O)(C(F)F)[C@@H](O)[C@H]2O)cc1Cl [TPP-2] | 10 to 100
Nc1ncnc2c1ncn2[C@@H]1O[C@@](COP(=O)(O)OP(=O)(O)OP(=O)(O)O)(C(F)F)[C@@H](O)[C@H]1O [TPP-8] | < 10
Nc1nc(N)c2ncn([C@@H]3O[C@@](COP(=O)(O)OP(=O)(O)OP(=O)(O)O)(C(F)F)[C@@H](O)[C@H]3O)c2n1 [TPP-7] | > 100
Nc1ncnc2ncn([C@@H]3O[C@@](COP(=O)(O)OP(=O)(O)OP(=O)(O)O)(C(F)F)[C@@H](O)[C@H]3O)c12 [TPP-9] | < 10
O=c1[nH]c(=O)n([C@@H]2O[C@@](COP(=O)(O)OP(=O)(O)OP(=O)(O)O)(C(F)F)[C@@H](O)[C@H]2O)cc1F [TPP-3] | 10 to 100
Nc1nc(=O)n([C@@H]2O[C@@](COP(=O)(O)OP(=O)(O)OP(=O)(O)O)(C(F)F)[C@@H](O)[C@H]2O)cc1Cl [TPP-5] | 10 to 100
Nc1nc(=O)n([C@@H]2O[C@@](COP(=O)(O)OP(=O)(O)OP(=O)(O)O)(C(F)F)[C@@H](O)[C@H]2O)cc1F [TPP-6] | < 10
Nc1nc2c(ncn2[C@@H]2O[C@@](COP(=O)(O)OP(=O)(O)OP(=O)(O)O)(C(F)F)[C@@H](O)[C@H]2O)c(=O)[nH]1 [TPP-10] | < 10
Nc1ccn([C@@H]2O[C@@](COP(=O)(O)OP(=O)(O)OP(=O)(O)O)(C(F)F)[C@@H](O)[C@H]2O)c(=O)n1 [TPP-4] | < 10
O=c1ccn([C@@H]2O[C@@](COP(=O)(O)OP(=O)(O)OP(=O)(O)O)(C(F)F)[C@@H](O)[C@H]2O)c(=O)[nH]1 [TPP-1] | 10 to 100
